Measured values taken from US20060189539A1, “Novel GnRH analogues with antitumour effects and pharmaceutical compositions thereof” (priority 1994, published 2006).
Non-standard residues stand in square brackets, D forms with d. Residues, ends and D or L forms follow the SMILES beside them. Groups on a side chain read outwards from the residue. *: point of attachment. dPhe(4-Cl) = N[C@H](Cc1ccc(Cl)cc1)C(=O)O; NEt2 = CCN(CC)*

What was measured:
[1] = system: MCF-7 human mammary carcinoma cell line; assay: Inhibition of colony formation (dose-survival), Example 18; assay type: cell-based; conditions: 50 μM
Source text: (§1) Human cell lines used in in vitro experiments. MCF-7 human mammary tumour cell line was stabilized in 1973 by Soule et al. from the pleural fluid of mammary carcinoma patients. The cells grow in monolayer and are epithelial in their character. MDA-MB-231 human mammary carcinoma cell line was isolated and stabilized in 1974 by Cailleau et al. similarly from pleural fluid. These cells also grow in monolayer. PC3 human prostate carcinoma cell line was stabilized 20 in 1979 in cell culture by Kaighn et al.; the cells are of simple epithelium type and form compact colonies in clonogenic assays. Ishikawa cell line originated from adenocarcinoma of human endometrium [Nishida et al.: Obstet. Gynecol. Jpn, 37, 25 1103-1111 (1985)], has epithelial character and contains steroid as well as GnRH receptors. Human tumour cell lines are maintained in plastic flasks (Greiner) in Dulbecco-6modified Eagle-MEM (DMEM GIBCO) nutritive medium. The medium used herein contained 10% of fetal calf serum (FCS).
(§2) In the case of cytostatics the cell-damaging effect is not cell-specific. […] One part of the arrested cells again go into the cycle, the other part may perish (apoptosis). […] The investigations were carried out on MCF-7 and MDA-MB-231 human mammary carcinoma cell lines, PC3 human prostate 15 carcinoma cell line and Ishikawa human endometrium carcinoma cell line. Threehundred cells were set into Petri dishes of 3.5 cm in diameter each. The treatment was carried out once, 24 hours following the explantation, then the colonies formed were counted after 9 to 12 days.

[2] = system: PC3 human prostate carcinoma cell line; assay: as above; assay type: cell-based
Source text: as §1, §2

[3] = system: MDA-MB-231 human mammary carcinoma cell line; assay: as above; assay type: cell-based; conditions: 50 μM
Source text: as §1, §2

[4] = system: Ishikawa human endometrium carcinoma cell line; assay: as above; assay type: cell-based; conditions: 50 μM
Source text: as §1, §2

[5] = system: B-lymphocytes; assay: Humoral immune response (antibody production of B-lymphocytes); assay type: in vivo, mice; conditions: for Increase of the humoral immune response: mice
[6] = system: T-lymphocytes; assay: Cellular immune response (rosette formation against BRBC antigen); assay type: in vivo, mice
Source text: The immunosuppressive side effect of cytostatics used in tumour therapy is commonly known. This effect can be compensated to a certain grade by various immunostimulants (endotoxin, levamisole). Polypeptides with much […] molecular weights (about 40,000 to 80,000) are also capable of protecting against immunosuppressive effect [Gal et al.: J. Biol. Resp. Modif. 5, 148-159 (1986)). The molecular weight of the novel polyanionic P-GFLG-OH macromolecule tested by us is about 10,000, that of MI-1892 is about 2000, i.e. relatively low; therefore, their immunostimulatory activity was unexpected.

[7] = system: MCF-7 xenograft; assay: In vivo antitumour effect on MCF-7 xenograft; set-up: species or system immunosuppressed CBA/Ca mice; conditions: 2 × 25 μg
Method: The immunosuppression of mice was carried out by using the method of Steel et al. (1978).
CBA/Ca female mice of about 6 weeks old were thymectomized and then, after one week, they were irradiated with 60Co (whole body irradiation; the lethal dose is 9.5 Gray). Within 24 hours 3 to 5×10^5 myelocytes were injected to the animals. Beneath the skin of the immunosuppressed mice 2×10^7 tumour cells or, in the case of later passages, about 2 mm^3 of tumour cells or in the case of later, additional passages about 2 mm^3 of tumour pieces were implanted. […] The treatment with steroid hormone was stopped by at least one week before beginning the investigation.
In the case of MCF-7 tumours (xenografts) the examinations were carried out with passages being in the phase of the 37th and 38th, respectively, transplantations.
In the case of mice bearing MCF-7 xenograft, the treatment was begun in the 4th week following xeno-transplantation.
Recent investigations have begun on 28 animals bearing MCF-7 xenograft .and on 28 animals bearing MDA-MB-231 xenograft. On animals bearing MCF-7 tumour the treatment was commenced in the 5th week following xeno-transplantation; the tumour volume was 205 to 225 mm^3. On animals bearing MDA-MB-231 tumour, the treatment was started in the 4th week after xeno-transplantation with a tumour volume of 140 to 150 mm^3. […] The control groups were daily treated with physiological saline s.c. (Each treated group consisted of 7 animals.)

[8] = system: human tumor cell lines; assay: Colony formation, Example 48, comparison with control D-Trp6-hGnRH; assay type: cell-based; conditions: data of Table VIII
Method: (§3) The examination gives accurate information about the cell-damaging effect of the substance tested as a function of varying doses. The treatment was carried out once; the colonies formed from the surviving cells were counted after 8-12 days. […] A part of the arrested cells again entered the cycle, an other part of them might be destroyed (apoptosis). […] In the case of a dose-response investigation, colonies containing less than 15 cells were not counted. 300 cells were put into each Petri dishes of 3.5 cm in diameter. The treatment was once carried out 24 hours after setting, then the colonies formed were counted after 8-12 days. The cells were treated once after 24 hours with 1-50 μM of various GnRH analogues of Examples above or with 1-50 μM of GnRH-III, respectively. The percentages of inhibition obtained on MCF-7, MDA-MB-231, PC3 and Ishikawa cells, respectively, together with the dose of the active agent used are shown in Table VIII.
In these studies the D-Trp6-hGnRH analogue (Sigma Co.) commonly used in the tumour therapy was employed as control.

[9] = system: MDA-MB-231 human mammary carcinoma cell line; assay: Inhibition of colony formation (dose-survival), Example 48; assay type: cell-based
Source text: (§4) MCF-7 human mammary carcinoma cell line was stabilized in 1973 by Soule et al. from the pleural fluid of a patient suffering from mammary carcinoma. MDA-MB-231 human mammary carcinoma cell line was isolated and stabilized by Cailleau et al. in 1974 similarly from pleural fluid. Both cell lines grow in monolayer. MCF-7 and MDA-MB-231 human mammary carcinoma cell lines are maintained in plastic flasks (Greiner), in Dulbecco-modified Eagle-MEM (DMEM, GIBCO) liquid nutrient medium containing 10% of fetal calf serum. MCF-7 cell line is estradiol receptor (ER)-positive containing proteins specifically binding GnRH. Thus, it represents, a useful model system for investigating the direct effect of GnRH mediated by the GnRH receptor. Being ER-negative and GnRH receptor-positive, MDA-MB-231 cell line is similarly suitable to study the direct effect of GnRH. PC3 human prostate carcinoma cell line was stabilized in cell culture by Kaighn et al. in 1979. The cells are of epithelial type and form compact colonies in clonogenic assays. The Ishikawa cell line originates from human endometrial adenocarcinoma [M. Nishida et al.: Acta Obstet. Gynecol. Jpn. 37, 1103-1111 (1985)], it is epithelial in its character and contains steroid-as well as GnRH receptors.
as §3

[10] = system: Ishikawa endometrium tumour cell culture; assay: as above; assay type: cell-based, human; conditions: 50 μM
Source text: as §4, §3

[11] = system: PC3 prostate tumour cell culture; assay: as above; assay type: cell-based, human
Source text: as §4, §3

[12] = system: MCF-7 human mammary carcinoma cell line; assay: as above; assay type: cell-based; conditions: 50 μM
Source text: MCF-7 human mammary carcinoma cell line was stabilized in 1973 by Soule et al. from the pleural fluid of a patient suffering from mammary carcinoma. MDA-MB-231 human mammary carcinoma cell line was isolated and stabilized by Cailleau et al. in 1974 similarly from pleural fluid. Both cell lines grow in monolayer. […] MCF-7 cell line is estradiol receptor (ER)-positive containing proteins specifically binding GnRH. Thus, it represents, a useful model system for investigating the direct effect of GnRH mediated by the GnRH receptor. Being ER-negative and GnRH receptor-positive, MDA-MB-231 cell line is similarly suitable to study the direct effect of GnRH. PC3 human prostate carcinoma cell line was stabilized in cell culture by Kaighn et al. in 1979. The cells are of epithelial type and form compact colonies in clonogenic assays. The Ishikawa cell line originates from human endometrial adenocarcinoma [M. Nishida et al.: Acta Obstet. Gynecol. Jpn. 37, 1103-1111 (1985)], it is epithelial in its character and contains steroid-as well as GnRH receptors. The examination gives accurate information about the cell-damaging effect of the substance tested as a function of varying doses. The treatment was carried out once; the colonies formed from the surviving cells were counted after 8-12 days. […] A part of the arrested cells again entered the cycle, an other part of them might be destroyed (apoptosis). […] The treatment was once carried out 24 hours after setting, then the colonies formed were counted after 8-12 days. The cells were treated once after 24 hours with 1-50 μM of various GnRH analogues of Examples above or with 1-50 μM of GnRH-III, respectively. The percentages of inhibition obtained on MCF-7, MDA-MB-231, PC3 and Ishikawa cells, respectively, together with the dose of the active agent used are shown in Table VIII.

[13] = system: PC3 human prostate carcinoma cells; assay: In vitro inhibition of cell proliferation (cell count), Example 19; assay type: cell-based; conditions: 30 μM of active substance, conjugate, treated once
Method: The procedure of treatment was as follows. After trypsinization the cells, 400,000 cells of MCF-7, MDA-MB-231 human mammary carcinoma, PC3 human prostate carcinoma or Ishikawa human endometrium tumour each were passed into Petri dishes of 10 cm in diameter. Starting from the day following transfer, the cells were treated with the substances to be tested in solution prepared with the nutrient medium during the exponential growth phase. […]

[14] = system: Ishikawa human endometrium tumour cells; conditions: 30 μM of active substance, conjugate, treated once
Source text: The procedure of treatment was as follows. After trypsinization the cells, 400,000 cells of MCF-7, MDA-MB-231 human mammary carcinoma, PC3 human prostate carcinoma or Ishikawa human endometrium tumour each were passed into Petri dishes of 10 cm in diameter. […]

## {Lys[n-poly(N-vinylpyrrolidone-co-maleic acid)-Gly-Phe-Leu-Gly-]}4,-GnRH-III [P-GFLG-Lys4-GnRH-III]
[1]
  % Inhibition of colony formation: 68%
[2]; 30 μM
  % Inhibition of colony formation: 94%
[3]
  % Inhibition of colony formation: 75%
[4]
  % Inhibition of colony formation: 25%

## CCN(CC)C(=O)[C@H](CC(=O)N[C@@H](CC(C)C)C(=O)N[C@@H](CCC(N)=O)C(=O)N1CCC[C@H]1C(=O)N[C@H](C)C(N)=O)NC(=O)[C@H](CCCCN)NC(=O)[C@H](CO)NC(=O)[C@@H](Cc1c[nH]c2ccccc12)NC(=O)[C@@H](Cc1ccc(Cl)cc1)NC(=O)[C@@H](Cc1c[nH]c2ccccc12)NC(C)=O [MI-1892, Ac-D-Trp^1,3,D-Cpa^2,Lys^5,[β-Asp(DEA)]^6,D-Ala^10-hGnRH, reference compound] (Ac-[dW][dPhe(4-Cl)][dW]SKD([Leu-Gln-Pro-dA-NH2])-NEt2)
[5]; dose not stated
  Effect on the humoral immune response: strengthened
[5]; 50 μg/mouse
  Increase of the humoral immune response: more than twofold
[5]; 100 μg/mouse
  Increase of the humoral immune response: threefold
[6]; 100 μg/mouse
  Increase of the cellular immune response: nearly twofold
[6]; dose not stated
  Effect on the cellular immune response (activity of T-lymphocytes against BRBC antigen): increased
[7]; week 4
  Inhibition %: 22.5%
[7]; week 6
  Inhibition %: 21%

## NCCCC[C@H](NC(=O)[C@H](Cc1c[nH]c2ccccc12)NC(=O)[C@H](Cc1c[nH]cn1)NC(=O)[C@@H]1CCC(=O)N1)C(=O)N[C@@H](Cc1c[nH]cn1)C(=O)N[C@@H](CC(=O)O)C(=O)N[C@@H](Cc1c[nH]c2ccccc12)C(=O)N[C@@H](CCCCN)C(=O)N1CCC[C@H]1C(=O)NCC(N)=O [Compound 6, Lys^4-GnRH-III]
[1]
  % Inhibition of colony formation: 40%
[2]; 50 μM
  % Inhibition of colony formation: did not show any inhibition
[3]
  % Inhibition of colony formation: 35%
[4]
  % Inhibition of colony formation: 21%
[8]
  Inhibitory effect on colony formation compared with control D-Trp6-hGnRH: exceeded the inhibitory effect of control
[9]; 10 μM
  % Inhibition of colony formation: 18%
[9]; 50 μM
  % Inhibition of colony formation: 35%
[10]
  % Inhibition of colony formation: 21%
[11]; 50 μM
  % Inhibition of colony formation: 0%
[11]; within the dose range used (1-50 μM)
  Effect on colony-forming ability: did not influence
[12]
  % Inhibition of colony formation: 40%

## D-Phe2,D-Trp3,{D-Lys[n-poly(N-vinylpyrrolidone-co-maleic acid)-Gly-Phe-Leu-Gly-]}6.-GNRH [P-GFLG-1004]
[13]
  % Inhibition of cell division: 35%
[14]
  % Inhibition of cell division: 20%
[2]; 30 μM
  % Inhibition of colony formation: 100%
[4]
  % Inhibition of colony formation: 46%
[12]
  % Inhibition of colony formation: 44%
